Tests used:
Assay in all cases: Kinase profiling (SelectScreen), ZLYTE
Format in all cases: biochemical
PLK1 = PLK1 (Homo sapiens, UniProt P53350)
Procedure: (§1) Kinase profiling was conducted by the SelectScreen Kinase Profiling Services (Thermo Fisher), using Z′-LYTE, Adapta, or LanthaScreen Eu Kinase Binding Assay for different kinases. The kinome phylogenetic tree was generated using the KinMap web portal.

CSNK1G2 (CK1 gamma 2) = CSNK1G2 (CK1 gamma 2) (Homo sapiens, UniProt P78368)
Procedure: as §1

DAPK3 (ZIPK) = DAPK3 (ZIPK) (Homo sapiens, UniProt O43293)
Procedure: as §1

IGF1R = IGF1R (Homo sapiens, UniProt P08069)
Chain of IGF1R (P08069 31-1367): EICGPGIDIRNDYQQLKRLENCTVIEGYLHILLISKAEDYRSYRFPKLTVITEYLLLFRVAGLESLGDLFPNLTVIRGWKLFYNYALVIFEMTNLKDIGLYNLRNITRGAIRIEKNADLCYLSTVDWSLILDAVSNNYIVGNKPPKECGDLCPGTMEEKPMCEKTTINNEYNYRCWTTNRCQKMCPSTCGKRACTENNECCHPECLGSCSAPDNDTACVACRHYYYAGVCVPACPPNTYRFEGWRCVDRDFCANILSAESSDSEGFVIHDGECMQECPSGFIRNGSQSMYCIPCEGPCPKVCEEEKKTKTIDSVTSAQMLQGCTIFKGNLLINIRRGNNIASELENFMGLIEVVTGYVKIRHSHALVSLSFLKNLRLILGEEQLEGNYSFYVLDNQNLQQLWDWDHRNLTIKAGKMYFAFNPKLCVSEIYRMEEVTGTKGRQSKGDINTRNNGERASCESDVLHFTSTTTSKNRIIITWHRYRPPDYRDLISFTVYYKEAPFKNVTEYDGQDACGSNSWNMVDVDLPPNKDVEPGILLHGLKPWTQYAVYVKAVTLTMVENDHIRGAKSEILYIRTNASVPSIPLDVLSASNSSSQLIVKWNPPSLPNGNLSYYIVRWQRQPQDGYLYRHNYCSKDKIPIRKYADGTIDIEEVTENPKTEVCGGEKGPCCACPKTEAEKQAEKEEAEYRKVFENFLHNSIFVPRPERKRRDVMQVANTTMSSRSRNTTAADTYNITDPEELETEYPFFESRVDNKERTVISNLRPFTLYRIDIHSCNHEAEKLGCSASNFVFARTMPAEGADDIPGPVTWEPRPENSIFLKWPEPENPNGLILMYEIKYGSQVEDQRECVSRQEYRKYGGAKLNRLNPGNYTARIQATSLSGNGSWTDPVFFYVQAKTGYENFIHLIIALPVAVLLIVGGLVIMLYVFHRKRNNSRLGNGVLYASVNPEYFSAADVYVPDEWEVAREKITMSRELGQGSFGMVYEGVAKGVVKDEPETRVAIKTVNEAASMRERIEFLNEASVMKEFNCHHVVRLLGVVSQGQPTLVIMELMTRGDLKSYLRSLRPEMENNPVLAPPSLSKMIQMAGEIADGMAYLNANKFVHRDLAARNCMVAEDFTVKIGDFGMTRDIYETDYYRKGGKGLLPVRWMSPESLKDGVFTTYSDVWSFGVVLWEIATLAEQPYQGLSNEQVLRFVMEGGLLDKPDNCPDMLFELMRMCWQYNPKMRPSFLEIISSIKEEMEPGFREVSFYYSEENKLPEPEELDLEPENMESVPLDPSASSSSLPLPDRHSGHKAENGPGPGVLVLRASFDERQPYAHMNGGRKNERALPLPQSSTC
Procedure: as §1

LCK = LCK (Homo sapiens, UniProt P06239)
Procedure: as §1

CLK2 = CLK2 (Homo sapiens, UniProt P49760)
Procedure: as §1

EGFR (ErbB1) = EGFR (ErbB1) (Homo sapiens, UniProt P00533)
Procedure: as §1

TEK (Tie2) = TEK (Tie2) (Homo sapiens, UniProt Q02763)
Procedure: as §1

STK4 (MST1) = STK4 (MST1) (Homo sapiens, UniProt Q13043)
Procedure: as §1

EPHA2 = EPHA2 (Homo sapiens, UniProt P29317)
Procedure: as §1

SRC = SRC (Homo sapiens, UniProt P12931)
Procedure: as §1

RET = RET (Homo sapiens, UniProt P07949)
Procedure: as §1

CHEK1 (CHK1) = CHEK1 (CHK1) (Homo sapiens, UniProt O14757)
Procedure: as §1

DYRK3 = DYRK3 (Homo sapiens, UniProt O43781)
Procedure: as §1

ABL1 = ABL1 (Homo sapiens, UniProt P00519)
Procedure: as §1

NEK1 = NEK1 (Homo sapiens, UniProt Q96PY6)
Procedure: as §1

SYK = SYK (Homo sapiens, UniProt P43405)
Procedure: as §1

INSR = INSR (Homo sapiens, UniProt P06213)
Chain of INSR (P06213 28-1382): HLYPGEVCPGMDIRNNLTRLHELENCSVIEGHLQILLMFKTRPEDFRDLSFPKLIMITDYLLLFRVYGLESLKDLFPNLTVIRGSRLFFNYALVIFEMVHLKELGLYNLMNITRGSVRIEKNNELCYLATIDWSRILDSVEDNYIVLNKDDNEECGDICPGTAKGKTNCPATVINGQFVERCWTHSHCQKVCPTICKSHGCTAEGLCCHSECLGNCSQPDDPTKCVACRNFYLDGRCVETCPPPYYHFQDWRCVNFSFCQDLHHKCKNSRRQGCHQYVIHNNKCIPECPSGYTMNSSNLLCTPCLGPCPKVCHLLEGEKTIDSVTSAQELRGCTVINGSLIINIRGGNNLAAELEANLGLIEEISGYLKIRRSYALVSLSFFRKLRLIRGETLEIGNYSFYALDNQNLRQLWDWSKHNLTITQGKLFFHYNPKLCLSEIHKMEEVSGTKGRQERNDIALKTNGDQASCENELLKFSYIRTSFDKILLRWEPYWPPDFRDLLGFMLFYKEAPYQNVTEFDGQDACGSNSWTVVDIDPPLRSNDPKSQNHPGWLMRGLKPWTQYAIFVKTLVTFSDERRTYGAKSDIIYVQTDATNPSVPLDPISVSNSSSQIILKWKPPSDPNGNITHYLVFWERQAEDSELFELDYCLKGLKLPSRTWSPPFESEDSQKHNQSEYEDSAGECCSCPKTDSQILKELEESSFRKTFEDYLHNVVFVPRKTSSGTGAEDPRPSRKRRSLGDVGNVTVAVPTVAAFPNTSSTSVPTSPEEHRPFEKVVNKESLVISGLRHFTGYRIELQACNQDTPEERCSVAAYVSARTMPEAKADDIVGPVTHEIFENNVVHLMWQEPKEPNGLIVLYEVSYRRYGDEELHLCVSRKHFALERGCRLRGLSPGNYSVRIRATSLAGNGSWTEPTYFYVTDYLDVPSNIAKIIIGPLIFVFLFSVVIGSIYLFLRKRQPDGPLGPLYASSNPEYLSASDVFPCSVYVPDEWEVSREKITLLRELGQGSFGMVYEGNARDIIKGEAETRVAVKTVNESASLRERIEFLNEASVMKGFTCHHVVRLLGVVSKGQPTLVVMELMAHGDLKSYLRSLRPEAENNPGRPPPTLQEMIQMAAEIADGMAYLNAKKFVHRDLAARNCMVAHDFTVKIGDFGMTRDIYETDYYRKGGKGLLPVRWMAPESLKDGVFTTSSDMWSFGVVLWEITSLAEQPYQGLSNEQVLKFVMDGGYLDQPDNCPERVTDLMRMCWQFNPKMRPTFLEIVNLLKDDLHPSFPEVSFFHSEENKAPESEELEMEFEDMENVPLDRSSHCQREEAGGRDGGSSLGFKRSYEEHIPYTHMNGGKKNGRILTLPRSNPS
Procedure: as §1

PRKCB1 (PKC beta I) = PRKCB1 (PKC beta I) (Homo sapiens, UniProt P05771)
Procedure: as §1

MAP2K6 (MKK6) = MAP2K6 (MKK6) (Homo sapiens, UniProt P52564); conditions: IA107 at 5 μM; ATP 100 μM
Chain of MAP2K6 (MKK6) (P52564 whole entry): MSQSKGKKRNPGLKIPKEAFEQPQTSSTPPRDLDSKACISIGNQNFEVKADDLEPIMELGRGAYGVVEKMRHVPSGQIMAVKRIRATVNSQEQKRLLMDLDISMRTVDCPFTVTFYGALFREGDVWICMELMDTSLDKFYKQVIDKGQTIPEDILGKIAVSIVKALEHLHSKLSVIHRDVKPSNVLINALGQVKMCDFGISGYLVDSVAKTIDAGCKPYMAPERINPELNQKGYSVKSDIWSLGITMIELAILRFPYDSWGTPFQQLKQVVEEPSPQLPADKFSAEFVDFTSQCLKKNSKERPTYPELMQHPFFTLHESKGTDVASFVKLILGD
Procedure: as §1

AKT1 (PKB alpha) = AKT1 (PKB alpha) (Homo sapiens, UniProt P31749)
Procedure: as §1

MAPK8 (JNK1) = MAPK8 (JNK1) (Homo sapiens, UniProt P45983); conditions: IA107 at 5 μM; ATP 100 μM
Procedure: as §1

EEF2K = EEF2K (Homo sapiens, UniProt O00418)
Procedure: as §1

PTK2 (FAK) = PTK2 (FAK) (Homo sapiens, UniProt Q05397)
Procedure: as §1

MAP2K1 (MEK1) = MAP2K1 (MEK1) (Homo sapiens, UniProt Q02750); conditions: IA107 at 5 μM; ATP 100 μM
Procedure: as §1

SGKL (SGK3) = SGKL (SGK3) (Homo sapiens, UniProt Q96BR1)
Procedure: as §1

TAOK2 (TAO1) = TAOK2 (TAO1) (Homo sapiens, UniProt Q9UL54)
Chain of TAOK2 (TAO1) (Q9UL54 whole entry): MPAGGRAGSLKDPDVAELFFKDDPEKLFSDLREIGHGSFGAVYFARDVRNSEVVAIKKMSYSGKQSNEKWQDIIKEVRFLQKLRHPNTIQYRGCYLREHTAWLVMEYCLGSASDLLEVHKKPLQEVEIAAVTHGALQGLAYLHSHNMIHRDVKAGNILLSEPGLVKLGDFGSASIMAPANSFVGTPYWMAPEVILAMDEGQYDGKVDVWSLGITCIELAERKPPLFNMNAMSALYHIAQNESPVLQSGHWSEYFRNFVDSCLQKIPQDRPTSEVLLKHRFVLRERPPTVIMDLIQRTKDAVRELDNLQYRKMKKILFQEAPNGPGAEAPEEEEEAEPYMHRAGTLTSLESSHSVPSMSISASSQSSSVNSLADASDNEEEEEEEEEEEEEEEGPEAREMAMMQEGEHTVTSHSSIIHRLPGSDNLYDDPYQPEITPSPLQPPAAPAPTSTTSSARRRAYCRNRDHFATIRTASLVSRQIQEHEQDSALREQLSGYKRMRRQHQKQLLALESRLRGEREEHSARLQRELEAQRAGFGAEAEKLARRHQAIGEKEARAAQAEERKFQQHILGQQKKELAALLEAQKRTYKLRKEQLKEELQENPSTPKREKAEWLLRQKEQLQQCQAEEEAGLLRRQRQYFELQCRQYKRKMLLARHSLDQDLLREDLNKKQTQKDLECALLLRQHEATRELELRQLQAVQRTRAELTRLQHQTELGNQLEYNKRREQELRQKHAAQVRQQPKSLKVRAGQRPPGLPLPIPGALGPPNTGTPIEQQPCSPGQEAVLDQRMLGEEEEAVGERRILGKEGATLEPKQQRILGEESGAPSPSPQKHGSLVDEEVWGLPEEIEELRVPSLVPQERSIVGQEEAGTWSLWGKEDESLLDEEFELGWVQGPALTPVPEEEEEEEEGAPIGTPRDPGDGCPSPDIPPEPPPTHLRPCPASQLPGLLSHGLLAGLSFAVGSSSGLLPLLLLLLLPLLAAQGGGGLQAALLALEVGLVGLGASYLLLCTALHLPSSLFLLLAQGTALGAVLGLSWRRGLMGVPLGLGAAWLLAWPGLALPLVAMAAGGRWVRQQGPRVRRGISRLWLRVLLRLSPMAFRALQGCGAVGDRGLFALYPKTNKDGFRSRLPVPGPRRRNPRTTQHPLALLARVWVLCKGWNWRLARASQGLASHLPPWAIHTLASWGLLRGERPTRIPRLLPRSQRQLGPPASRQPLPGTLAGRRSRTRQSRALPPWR
Procedure: as §1

IKBKE (IKK epsilon) = IKBKE (IKK epsilon) (Homo sapiens, UniProt Q14164)
Procedure: as §1

EPHB4 = EPHB4 (Homo sapiens, UniProt P54760)
Procedure: as §1

KIT = KIT (Homo sapiens, UniProt P10721)
Procedure: as §1

PAK4 = PAK4 (Homo sapiens, UniProt O96013)
Procedure: as §1

MARK2 = MARK2 (Homo sapiens, UniProt Q7KZI7)
Procedure: as §1

FLT3 = FLT3 (Homo sapiens, UniProt P36888)
Procedure: as §1

MET (cMet) = MET (cMet) (Homo sapiens, UniProt P08581)
Procedure: as §1

PRKACA (PKA) = PRKACA (PKA) (Homo sapiens, UniProt P17612)
Procedure: as §1

MAPKAPK2 = MAPKAPK2 (Homo sapiens, UniProt P49137)
Chain of MAPKAPK2 (P49137 whole entry): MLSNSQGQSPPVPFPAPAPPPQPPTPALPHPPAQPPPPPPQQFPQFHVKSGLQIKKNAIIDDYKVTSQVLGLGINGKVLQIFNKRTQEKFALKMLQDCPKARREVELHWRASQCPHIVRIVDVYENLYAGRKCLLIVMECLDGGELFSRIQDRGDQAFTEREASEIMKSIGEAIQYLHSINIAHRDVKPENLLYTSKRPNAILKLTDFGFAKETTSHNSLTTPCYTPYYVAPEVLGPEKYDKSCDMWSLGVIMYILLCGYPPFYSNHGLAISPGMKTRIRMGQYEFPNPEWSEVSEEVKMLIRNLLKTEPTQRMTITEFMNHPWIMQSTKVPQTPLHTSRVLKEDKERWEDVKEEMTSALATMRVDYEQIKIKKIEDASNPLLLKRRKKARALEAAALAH
Procedure: as §1

MAPK1 (ERK2) = MAPK1 (ERK2) (Homo sapiens, UniProt P28482)
Procedure: as §1

ERBB2 (HER2) = ERBB2 (HER2) (Homo sapiens, UniProt P04626)
Procedure: as §1

AURKA (Aurora A) = AURKA (Aurora A) (Homo sapiens, UniProt O14965)
Procedure: as §1

CDK1/cyclin B = CDK1/cyclin B (Homo sapiens, UniProt P06493)
Procedure: as §1

ROCK1 = ROCK1 (Homo sapiens, UniProt Q13464)
Procedure: as §1

Chain of CSNK1G2 (CK1 gamma 2) (P78368 whole entry): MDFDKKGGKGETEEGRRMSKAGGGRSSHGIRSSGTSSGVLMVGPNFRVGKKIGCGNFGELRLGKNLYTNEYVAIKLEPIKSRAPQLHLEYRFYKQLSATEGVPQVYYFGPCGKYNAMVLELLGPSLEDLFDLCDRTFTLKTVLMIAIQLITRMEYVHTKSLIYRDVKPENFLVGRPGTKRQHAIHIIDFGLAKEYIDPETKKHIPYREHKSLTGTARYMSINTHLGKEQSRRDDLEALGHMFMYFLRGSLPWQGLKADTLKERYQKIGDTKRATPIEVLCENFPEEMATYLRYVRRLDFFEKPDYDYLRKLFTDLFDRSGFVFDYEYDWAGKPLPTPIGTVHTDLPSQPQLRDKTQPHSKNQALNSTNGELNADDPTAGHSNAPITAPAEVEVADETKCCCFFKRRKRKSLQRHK

Cc1c(CCC(=O)O)c2cc(Br)ccc2n1C(=O)c1ccccc1 [IA107] gave an inhibition at 5 µM (PLK1) of 3%, an inhibition at 5 µM (CSNK1G2 (CK1 gamma 2)) of 6% and an inhibition at 5 µM (DAPK3 (ZIPK)) of 1%. For the same molecule, the inhibition at 5 µM (IGF1R) was 3%, the inhibition at 5 µM (LCK) was 8% and the inhibition at 5 µM (CLK2) was 7%. For the same molecule, the inhibition at 5 µM (EGFR (ErbB1)) was 5%, the inhibition at 5 µM (TEK (Tie2)) was 6% and the inhibition at 5 µM (STK4 (MST1)) was 0%. It also gave an inhibition at 5 µM (EPHA2) of 4%, an inhibition at 5 µM (SRC) of 4% and an inhibition at 5 µM (RET) of 9%. It also gave an inhibition at 5 µM (CHEK1 (CHK1)) of 10%, an inhibition at 5 µM (DYRK3) of 2% and an inhibition at 5 µM (ABL1) of 3%. For the same molecule, the inhibition at 5 µM (NEK1) was 17%, the inhibition at 5 µM (SYK) was 3% and the inhibition at 5 µM (INSR) was 5%. It also gave an inhibition at 5 µM (PRKCB1 (PKC beta I)) of 7%, an inhibition at 5 µM (MAP2K6 (MKK6)) of 2% and an inhibition at 5 µM (AKT1 (PKB alpha)) of 0%. The inhibition at 5 µM (MAPK8 (JNK1)) was -8%, the inhibition at 5 µM (EEF2K) was 5% and the inhibition at 5 µM (PTK2 (FAK)) was 4%. For the same molecule, the inhibition at 5 µM (MAP2K1 (MEK1)) was 3%, the inhibition at 5 µM (SGKL (SGK3)) was 1% and the inhibition at 5 µM (TAOK2 (TAO1)) was -4%. For the same molecule, the inhibition at 5 µM (IKBKE (IKK epsilon)) was 2%, the inhibition at 5 µM (EPHB4) was 3% and the inhibition at 5 µM (KIT) was 0%. The inhibition at 5 µM (PAK4) was -3%, the inhibition at 5 µM (MARK2) was 8% and the inhibition at 5 µM (FLT3) was 6%. The inhibition at 5 µM (MET (cMet)) was 3%, the inhibition at 5 µM (PRKACA (PKA)) was 9% and the inhibition at 5 µM (MAPKAPK2) was 5%. For the same molecule, the inhibition at 5 µM (MAPK1 (ERK2)) was 2%, the inhibition at 5 µM (ERBB2 (HER2)) was -3% and the inhibition at 5 µM (AURKA (Aurora A)) was 5%. The inhibition at 5 µM (CDK1/cyclin B) was 4% and the inhibition at 5 µM (ROCK1) was 1%.
